Results reported in ChEMBL document CHEMBL3045829, “Structure- and species-dependent insecticidal effects of neo-clerodane diterpenes” (J Agric Food Chem, 2000).

What was measured:
Myzus persicae [1] = test: Potency index, ratio of antifeedant activity of farnesol to compound against Myzus persicae (green peach aphid) assessed feeding settling inhibition index at 50 ug/cm2; assay type: functional
Myzus persicae [2] = test: Antifeedant activity against Myzus persicae (green peach aphid) assessed feeding settling inhibition index at 50 ug/cm2 relative to untreated control; assay type: functional
Spodoptera littoralis [3] = test: Nutritional effect in Spodoptera littoralis L6 larvae assessed as food consumption at 20 ug/insect administered through oral cannulation after 72 hr relative to untreated control; assay type: functional
Spodoptera littoralis [4] = test: Nutritional effect in Spodoptera littoralis L6 larvae assessed as weight gain at 20 ug/insect administered through oral cannulation after 72 hr relative to untreated control; assay type: functional
Spodoptera littoralis [5] = test: Antifeedant activity against Spodoptera littoralis assessed as inhibition of feeding at 50 ug/cm2 by choice feeding assay relative to untreated control; assay type: functional
Spodoptera littoralis [6] = test: Antifeedant activity against Spodoptera littoralis assessed as inhibition of feeding by choice feeding assay relative to untreated control; assay type: functional, organism-based
[7] = test system: Leptinotarsa decemlineata; test: Toxicity against Leptinotarsa decemlineata assessed as insect mortality administered through hemolymph injection after 72 hr; assay type: functional; parameters: concentration or dose not given beside the values
[8] = test system: Leptinotarsa decemlineata; test: Antifeedant activity against Leptinotarsa decemlineata assessed as inhibition of feeding by no-choice feeding assay relative to untreated control; assay type: functional, organism-based
[9] = test system: Leptinotarsa decemlineata; test: Antifeedant activity against Leptinotarsa decemlineata assessed as inhibition of feeding at 50 ug/cm2 by no-choice feeding assay relative to untreated control; assay type: functional
[10] = test system: Leptinotarsa decemlineata; test: Antifeedant activity against Leptinotarsa decemlineata assessed as inhibition of feeding by choice feeding assay relative to untreated control; assay type: functional, organism-based
[11] = test system: Leptinotarsa decemlineata; test: Antifeedant activity against Leptinotarsa decemlineata assessed as inhibition of feeding at 50 ug/cm2 by choice feeding assay relative to untreated control; assay type: functional

Structure (SMILES) | fold change (FC) (Myzus persicae [1]) | inhibition at 50 µg/cm2 (Myzus persicae [2]) | Activity (Spodoptera littoralis [3]) | Activity (Spodoptera littoralis [4]) | inhibition at 50 µg/cm2 (Spodoptera littoralis [5]) | EC50 (Spodoptera littoralis [6]) | mortality [7] | EC50 [8] | inhibition at 50 µg/cm2 [9] | EC50 [10] | inhibition at 50 µg/cm2 [11]
C=C1CCC[C@@H]2[C@@](C)(C/C=C3/CC(OC(C)=O)OC3OC(C)=O)[C@H](C)CC[C@@]12C (stereo partly specified) | 2 | 43.1% | 110.26% | 110.18% | 11.2% | > 50 microg/cm2 | 25% | > 50 microg/cm2 | 28.8% | > 50 microg/cm2 | 33.8%
C=C1CCC[C@@H]2[C@@](C)(CC(OC(C)=O)/C(=C/COC(C)=O)COC(C)=O)[C@H](C)CC[C@@]12C (stereo partly specified) |  | 19.7% | 93.02% | 104.75% | 18.4% | > 50 microg/cm2 | 32% | > 50 microg/cm2 | 11.6% | > 50 microg/cm2 | 38.5%
C=C1CCC[C@@H]2[C@@](C)(CC(O)/C(=C/COC(C)=O)COC(C)=O)[C@H](C)CC[C@@]12C (stereo partly specified) | 2 | 48.2% | 88.33% | 106.65% | 42.5% | > 50 microg/cm2 | 26% | > 50 microg/cm2 | 22.6% | > 50 microg/cm2 | 61.4%
C=C1CCC[C@@H]2[C@@](C)(C/C=C(\CC=O)C(C)=O)[C@H](C)CC[C@@]12C | 2 | 45.6% | 92.7% | 104.33% | 14.7% | > 50 microg/cm2 | 26% | 7.7 microg/cm2 | 98.9% | 12.8 microg/cm2 | 89.9%
CC(=O)OC1C/C(=C/C[C@@]2(C)[C@H](C)CC[C@]3(C)[C@@H]2CCC[C@@]32CO2)C(OC(C)=O)O1 (stereo partly specified) |  |  | 55.54% | 26.37% | 73.9% |  | 42% |  | 73.3% |  | 91.2%
CC(=O)OC/C=C(\COC(C)=O)C(C[C@@]1(C)[C@H](C)CC[C@]2(C)[C@@H]1CCCC21CO1)OC(C)=O (stereo partly specified) |  | 26.3% | 39.74% | 31.03% | 17.9% | > 50 microg/cm2 | 50% | > 50 microg/cm2 | 40.7% | 6.4 microg/cm2 | 96.6%
CC(=O)OC/C=C(\COC(C)=O)C(C[C@@]1(C)[C@H](C)CC[C@]2(C)[C@@H]1CCCC2(O)CO)OC(C)=O (stereo partly specified) |  |  | 38.19% | 29.72% | 32.6% | > 50 microg/cm2 | 50% |  | 86.5% |  | 97.1%
CC(=O)OC/C=C(\COC(C)=O)[C@@H](C[C@@]1(C)[C@H](C)CC[C@@]2(C)C(C)=CCC[C@H]12)OC(C)=O |  | 33.5% | 40.02% | 30.69% | 28.1% | > 50 microg/cm2 | 8% | > 50 microg/cm2 | 35.5% | > 50 microg/cm2 | 31.4%
C=C1CCC[C@@H]2[C@@](C)(C/C=C(/C=O)CC=O)[C@H](C)CC[C@@]12C [E-ISOLINARIDIAL] | 2 | 44.3% | 95.56% | 108.22% | 23.3% | > 50 microg/cm2 | 0% | 8.5 microg/cm2 | 90.7% | 10.5 microg/cm2 | 90.1%
CC(C)=CCC/C(C)=C/CC/C(C)=C/CO [FARNESOL] |  | 90.6% |  |  |  |  |  |  |  |  | 
C[C@@H]1CC[C@@H]2C(C)(C)C[C@]3(C)CC=C[C@]123 [SILPHINENE] |  |  |  |  |  |  | 24% | 2.7 microg/cm2 |  | 0.27 microg/cm2 | 
